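Compound exposure: 48 hours, 5 concentrations, 96-well plates. The concentration for full growth arrest is given as TGI.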
What was measured:
Assay in all cases: NCI-60 cell line screen, 48 h
CAKI-1 renal = system: CAKI-1 renal
DLD-1 colon = system: DLD-1 colon
RPMI-8226 leukemia = system: RPMI-8226 leukemia
HOP-92 NSCLC = system: HOP-92 NSCLC
UACC-62 melanoma = system: UACC-62 melanoma
SNB-75 CNS = system: SNB-75 CNS
KM20L2 colon = system: KM20L2 colon
U251 CNS = system: U251 CNS
UO-31 renal = system: UO-31 renal
DMS 114 small cell lung = system: DMS 114 small cell lung
SNB-19 CNS = system: SNB-19 CNS
HOP-62 NSCLC = system: HOP-62 NSCLC
MALME-3M melanoma = system: MALME-3M melanoma
A498 renal = system: A498 renal
M19-MEL melanoma = system: M19-MEL melanoma
ACHN renal = system: ACHN renal
K-562 leukemia = system: K-562 leukemia
OVCAR-4 ovarian = system: OVCAR-4 ovarian
DMS 273 small cell lung = system: DMS 273 small cell lung
HCC-2998 colon = system: HCC-2998 colon
RXF 393 renal = system: RXF 393 renal
SNB-78 CNS = system: SNB-78 CNS
UACC-257 melanoma = system: UACC-257 melanoma
MOLT-4 leukemia = system: MOLT-4 leukemia
HCT-15 colon = system: HCT-15 colon
SK-OV-3 ovarian = system: SK-OV-3 ovarian
KM12 colon = system: KM12 colon
NCI-H23 lung = system: NCI-H23 lung
OVCAR-3 ovarian = system: OVCAR-3 ovarian
SF-268 CNS = system: SF-268 CNS
SW-620 colon = system: SW-620 colon
OVCAR-5 ovarian = system: OVCAR-5 ovarian
OVCAR-8 ovarian = system: OVCAR-8 ovarian
786-0 renal = system: 786-0 renal
NCI-H522 lung = system: NCI-H522 lung
TK-10 renal = system: TK-10 renal
SK-MEL-2 melanoma = system: SK-MEL-2 melanoma
NCI-H460 lung = system: NCI-H460 lung
LXFL 529 NSCLC = system: LXFL 529 NSCLC
EKVX NSCLC = system: EKVX NSCLC
HOP-18 NSCLC = system: HOP-18 NSCLC
CCRF-CEM leukemia = system: CCRF-CEM leukemia
A549 NSCLC = system: A549 NSCLC
SN12C renal = system: SN12C renal
XF 498 CNS = system: XF 498 CNS
M14 melanoma = system: M14 melanoma
SF-539 CNS = system: SF-539 CNS
SK-MEL-5 melanoma = system: SK-MEL-5 melanoma
HCT-116 colon = system: HCT-116 colon
HL-60(TB) leukemia = system: HL-60(TB) leukemia
IGROV1 ovarian = system: IGROV1 ovarian
COLO 205 colon = system: COLO 205 colon
LOX IMVI melanoma = system: LOX IMVI melanoma
SF-295 CNS = system: SF-295 CNS
SK-MEL-28 melanoma = system: SK-MEL-28 melanoma
HT29 colon = system: HT29 colon
NCI-H226 lung = system: NCI-H226 lung
SR leukemia = system: SR leukemia

Measured: TGI

N/N=C1/C(=O)N(c2ccc(Cl)cc2)C(=O)C(=O)C1c1nc2ccccc2s1 (stereo not drawn)
not listed: NCI-H226 lung | SR leukemia
> 100 µM: all other assays above

CCN(CC)C(=O)Cc1[nH][nH]c(=O)c1C(=O)N(CC)CC
not listed: CAKI-1 renal | OVCAR-5 ovarian | SK-MEL-5 melanoma
> 100 µM: all other assays above

CC1=Nc2ccccc2S/C1=C1/C=NC(=NC#N)N=C1C(=O)Nc1cccc(Cl)c1
not listed: HOP-92 NSCLC | XF 498 CNS | HL-60(TB) leukemia
> 100 µM: all other assays above

CCOC(=O)C(Oc1ccc(OC)c2c1C(=O)CCC2)c1ccccc1 (stereo not drawn)
not listed: HOP-92 NSCLC | SNB-75 CNS | RXF 393 renal | HOP-18 NSCLC | NCI-H226 lung | SR leukemia
> 100 µM: all other assays above

Source: PubChem BioAssay (NCI)
